Laboratory results reported in ChEMBL document CHEMBL1201862, “PubChem BioAssay data set” (2004).
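96-well plates; 48 h exposure; 5 concentrations. Endpoints by linear interpolation between flanking doses. Not reached: highest tested concentration assigned. GI50 marks 50% less growth.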 Active and inactive are the calls of the source. No stated cut-off is given here; in the data, active = GI50 up to about 1.1 µM and inactive = higher.

Columns and labels:
Assay in all cases: NCI anticancer screen, dose series, 48 h
RXF 393 = test system: RXF 393
HOP-92 = test system: HOP-92
OVCAR-8 = test system: OVCAR-8
SF-268 = test system: SF-268
SF-295 = test system: SF-295
UACC-257 = test system: UACC-257
HOP-62 = test system: HOP-62
SK-OV-3 = test system: SK-OV-3
PC-3 = test system: PC-3
SNB-19 = test system: SNB-19
SK-MEL-5 = test system: SK-MEL-5
Hs-578T = test system: Hs-578T
SN12C = test system: SN12C
TK-10 = test system: TK-10
ACHN = test system: ACHN
HCT-116 = test system: HCT-116
A498 = test system: A498
IGROV-1 = test system: IGROV-1
RPMI-8226 = test system: RPMI-8226

Measured: GI50

COc1ccccc1N1C(=O)CS(=O)(=O)C1c1cccc(Oc2ccccc2)c1 (configuration not stated)
inactive: RXF 393 16.9 µM | HOP-92 10.8 µM | OVCAR-8 16.5 µM | SF-268 15.8 µM | SF-295 16.7 µM | UACC-257 11.9 µM | HOP-62 18.6 µM | SK-OV-3 23.8 µM | PC-3 12.2 µM | SNB-19 18 µM | SK-MEL-5 14.4 µM | Hs-578T 19.1 µM | SN12C 17.1 µM | TK-10 18.5 µM | ACHN 19 µM | HCT-116 13.5 µM | A498 18.9 µM

CCOc1ccc(Nc2nc(N)nc(N)c2N)cc1
inactive: HOP-92 50.9 µM | OVCAR-8 45.2 µM | SF-268 15.6 µM | IGROV-1 11.6 µM | SF-295 17.9 µM | UACC-257 > 100 µM | HOP-62 24.7 µM | SK-OV-3 > 100 µM | PC-3 45.3 µM | SNB-19 25.2 µM | RPMI-8226 12.1 µM | SK-MEL-5 61.5 µM | Hs-578T 18.2 µM | SN12C > 10 µM | TK-10 > 100 µM | ACHN 38.7 µM | HCT-116 30.7 µM | A498 > 100 µM

O=C1CC(C(CC(=O)c2ccccc2)c2ccccc2)C(=O)c2ccccc2N1 (configuration not stated)
inactive: OVCAR-8 27.8 µM | SF-268 53.6 µM | IGROV-1 > 100 µM | SF-295 37.2 µM | UACC-257 88.5 µM | HOP-62 51.1 µM | SK-OV-3 > 100 µM | PC-3 25.5 µM | SNB-19 51.5 µM | RPMI-8226 22.1 µM | SK-MEL-5 24.2 µM | Hs-578T 43.5 µM | SN12C 35.7 µM | ACHN 45.3 µM | HCT-116 49.3 µM | A498 > 100 µM

O=C(CCCCCC(=O)N1CC(CCl)c2ccc([N+](=O)[O-])cc21)N1CC(CCl)c2ccc([N+](=O)[O-])cc21 (configuration not stated)
inactive: RXF 393 > 100 µM | HOP-92 > 100 µM | OVCAR-8 > 100 µM | SF-268 > 100 µM | IGROV-1 > 100 µM | SF-295 87.1 µM | UACC-257 > 100 µM | HOP-62 95.7 µM | SK-OV-3 > 100 µM | PC-3 > 100 µM | SNB-19 > 100 µM | SK-MEL-5 52.5 µM | Hs-578T > 100 µM | SN12C > 100 µM | TK-10 > 100 µM | ACHN > 100 µM | HCT-116 > 100 µM | A498 87.1 µM

C/C=C1\CNC1C(=O)O (configuration not stated)
inactive: HOP-92 > 100 µM | OVCAR-8 > 100 µM | SF-268 > 100 µM | IGROV-1 > 100 µM | SF-295 > 100 µM | UACC-257 > 100 µM | HOP-62 > 100 µM | SK-OV-3 > 100 µM | PC-3 > 100 µM | SNB-19 > 100 µM | RPMI-8226 > 100 µM | SK-MEL-5 > 100 µM | Hs-578T > 100 µM | SN12C > 100 µM | TK-10 > 100 µM | ACHN > 100 µM | HCT-116 > 100 µM | A498 > 100 µM

O=C1CSC(c2ccccc2[N+](=O)[O-])N1c1ccc(-n2c(-c3ccccc3)nc3ccccc3c2=O)cc1 (configuration not stated)
inactive: HOP-92 27 µM | OVCAR-8 40.4 µM | SF-268 46.9 µM | IGROV-1 46.1 µM | SF-295 24.5 µM | UACC-257 > 100 µM | HOP-62 21.3 µM | SK-OV-3 12.5 µM | PC-3 35.7 µM | SNB-19 32.7 µM | RPMI-8226 > 100 µM | SK-MEL-5 70.5 µM | Hs-578T 20.8 µM | SN12C > 100 µM | TK-10 29.6 µM | ACHN 61 µM | HCT-116 37.8 µM | A498 38.4 µM

Fc1cc(C2=Nn3c(CNc4ccc(Cl)cc4)nnc3S/C2=C\c2ccc(-c3ccc(Cl)cc3)o2)c(Cl)cc1Cl
inactive: RXF 393 13.4 µM | OVCAR-8 51.1 µM | SF-268 53.2 µM | IGROV-1 17.7 µM | SF-295 22.3 µM | UACC-257 > 100 µM | HOP-62 21.8 µM | PC-3 14.9 µM | SNB-19 44 µM | RPMI-8226 23.2 µM | SK-MEL-5 26.1 µM | Hs-578T 46.7 µM | SN12C 33.3 µM | TK-10 17.5 µM | ACHN 34.9 µM | HCT-116 63.2 µM | A498 17.5 µM

Cn1c2c(c3ccccc31)CC(=S)N1CCCC(CC2O)C1 (configuration not stated)
inactive: HOP-92 > 100 µM | OVCAR-8 > 100 µM | SF-268 > 100 µM | SF-295 > 100 µM | UACC-257 > 100 µM | SK-OV-3 > 100 µM | PC-3 > 100 µM | SNB-19 > 100 µM | RPMI-8226 > 100 µM | SK-MEL-5 > 100 µM | Hs-578T > 100 µM | SN12C > 100 µM | TK-10 > 100 µM | ACHN > 100 µM | HCT-116 > 100 µM | A498 > 100 µM

Cn1c2n/c(=N\c3ccc(Cl)cc3)[n+]3ccc4ccccc4c3c-2c([O-])n1-c1ccccc1
inactive: RXF 393 > 100 µM | OVCAR-8 > 100 µM | SF-268 > 100 µM | IGROV-1 > 100 µM | SF-295 > 100 µM | UACC-257 > 100 µM | HOP-62 > 100 µM | PC-3 > 100 µM | SNB-19 > 100 µM | RPMI-8226 > 100 µM | SK-MEL-5 > 100 µM | Hs-578T > 100 µM | SN12C > 100 µM | TK-10 > 100 µM | ACHN > 100 µM | HCT-116 > 100 µM | A498 > 100 µM

COC1(c2ccc(Cl)cc2)SC=C(C)n2c1noc2=O (configuration not stated)
inactive: RXF 393 > 100 µM | HOP-92 > 100 µM | SF-268 > 100 µM | IGROV-1 > 100 µM | SF-295 > 100 µM | UACC-257 > 100 µM | PC-3 > 100 µM | SNB-19 > 100 µM | RPMI-8226 > 100 µM | SK-MEL-5 > 100 µM | Hs-578T > 100 µM | SN12C > 100 µM | ACHN > 100 µM | HCT-116 78.7 µM | A498 > 100 µM

O=C1Nc2c(Cl)cc(Cl)cc2/C1=N/N=C/c1ccco1
inactive: RXF 393 32.1 µM | HOP-92 27.4 µM | OVCAR-8 22.8 µM | IGROV-1 27.5 µM | SF-295 31.7 µM | UACC-257 44 µM | HOP-62 34.7 µM | SK-OV-3 67.3 µM | PC-3 29.8 µM | SNB-19 80.7 µM | SK-MEL-5 29.6 µM | Hs-578T 32.7 µM | SN12C 26.6 µM | TK-10 48.5 µM | ACHN 34.1 µM | HCT-116 33 µM | A498 21.2 µM
